We go through 32 compounds from a melting point compilation (Tetko et al.; mined from patent text by program, amines drawn as free bases though some values may be those of a salt).

With `Clc1ccc(Sc2ncccn2)cc1`, the melting point (usually the temperature of the solid-liquid transition) lay in the range of 68 to 70 °C. In the case of `CC(OCc1ccc2ccccc2c1)(C(=O)Cl)C(F)(F)F` (configuration not stated) it was 39 to 43 °C. Next, `CCCCC(=O)SCC(Cc1ccccc1)C(=O)Nc1cccc(C(=O)O)c1C` (configuration not stated): 113 to 114 °C; `CCSc1nc2c(C(=O)OCOC)sc(C)c2[nH]1`: 128 to 130 °C. For the compound `c1ccc2c(c1)CC(CCN1CCN(c3cccc4[nH]ccc34)CC1)C2`, the melting point was in the range of 146 to 147 °C. In the case of `Cc1cc(C(=O)N2Cc3cccn3Cc3ccccc32)ccc1C1=CCC2CC1C2(C)C` (configuration not stated) it was 139 to 140 °C. The compound `Clc1cc(-c2csc(Cc3ccccc3)n2)ccn1` registered a melting point of 104 to 106 °C. In the case of `O=C(Cc1cccc2ccccc12)Nc1cc(C2CC(NC(=O)C3CC3c3ccccc3)C2)[nH]n1` (configuration not stated) it was 140 °C; in that of `CC(=O)OC1CSC(Oc2cncc(S(=O)(=O)c3ccc(F)cc3)c2)C(OC(C)=O)C1OC(C)=O` (configuration not stated), 128 °C; in that of `Cn1c(=O)ccc2cc(CBr)ccc21`, 99 to 100 °C. `Nc1nc(NCC(O)(c2ccccc2)c2ccccc2)c2ncn(C3OC(CO)C(O)C3O)c2n1` (configuration not stated): the melting point fell in the range of 138 to 140 °C.

In the case of `Cc1cc(-c2c(-c3ccc(F)cc3)nn3cccnc23)ccn1`, the melting point was in the range of 164 to 166 °C. For `COc1cc2cnc(O)nc2cc1OC`, the melting point was in the range of 260 to 263 °C.

In turn, `S=c1sc2ccccc2n1CNc1ccccc1` had a melting point of 102 to 103 °C. Next, `Cc1nc(-n2cnn(CCCC(F)(F)F)c2=O)sc1C(=O)NCc1cccnc1`: 184 to 185 °C; `Clc1ccc(-c2nc(-n3cccn3)oc2CCC2=NCCO2)cc1`: 79 to 80 °C. In turn, `COc1cc(CCNC=O)cc2c1OCO2` registered a melting point of 108 to 110 °C.

Regarding `CCc1cc(OCc2ccc(-c3ccccc3C(=O)OC)cc2)c2ccccc2n1`, the melting point fell in the range of 132 to 134 °C. Compound `CCN1CCN(c2ccc(C(=O)NCCCCCCCCCCCCO[N+](=O)[O-])cn2)CC1` had a melting point of 71 to 72 °C. Next, `Cn1ncc([N+](=O)[O-])c1CBr`: 71 to 73 °C.

For `C=CCONC(CCC)=C1C(=O)CC(CCC2OCCCO2)CC1=O` (configuration not stated), the melting point is 50 to 52 °C. Compound `O=C(O)CCc1cc2cc(Cl)ccc2n1S(=O)(=O)c1ccccn1` displayed a melting point of 189 °C.

`N=C(N)NC1CCC(CCN2CCN(c3ccccc3)CC2)CC1` (configuration not stated) displayed a melting point of 140 to 170 °C.

As to `N#Cc1cnc2sc(I)cc2c1Cl`, the melting point is 181 to 182 °C. The compound `O=C(O)CN1C(=O)CC1SCc1ccccc1` (configuration not stated) came in with a melting point of 110 °C. Consider `C=Cc1ccc(-c2nc(C)c3c(n2)sc2c(OCC)nc(N4CCNCC4)nc23)cc1`, for which the melting point was in the range of 165 to 166 °C. Next, `CC(C)c1cccc(C(C)C)c1NC(=O)CS(=O)(=O)CCCl`: 166 to 168 °C. In the case of `Cc1c(C)c2c(c(C)c1N)CC(C)(CN1CCC(c3ccncc3)CC1)O2` (configuration not stated) it was 126 to 128 °C; in that of `Cc1cc(=O)n(-c2ccc(Cl)cc2)cn1`, 177 to 179 °C. `O=C(CCc1cnn(-c2ccccc2)c1-c1ccccc1)Nc1ccc(C(=O)O)cc1` yielded a melting point of 254 to 256 °C. The compound `CCCCCCOc1ccc(OC)c(Cc2cnc(N)nc2N)c1` displayed a melting point of 139 to 140 °C.

As for `CCCCCCCC(=O)N(C)Cc1cccc(-c2ccc(C=CC(=O)O)s2)c1`, the melting point was in the range of 102 to 104 °C.
